In patent US11324832B2, “Tripartite modulators of endosomal G protein-coupled receptors” (Endosome Therapeutics, Inc., priority 2015, dated 2022):
Where a SMILES comes first, the peptide text is derived from it. [ ]: non-standard residue; d: D form. The star is where a group is joined. X1 = CC(C)CCC[C@@H](C)[C@H]1CC[C@H]2[C@@H]3CC[C@H]4C[C@@H](O*)CC[C@]4(C)[C@H]3CC[C@]12C; PEG4 = NCCOCCOCCOCCOCCC(=O)O; PEG3 = NCCOCCOCCOCCC(=O)O

What was measured:
[1] = Stability in the spinal cord after intrathecal injection to mice; format: in vivo, mouse; conditions: 10 μM, 5 μl, spinal cord after 3 hours
Experimental: To assess stability in cerebrospinal fluid, spantide or Compound 1 (10 μg/ml) was incubated in human cerebrospinal fluid (0-4 h, 37° C.), and then snap frozen. Proteins were precipitated using ACN. To assess stability in the spinal cord, spantide or Compound 1 was injected intrathecally to mice (10 μM, 5 μl, L3/L4). After 3 hours, a spinal cord segment 5 mm on either side the injection site was removed and snap frozen. Tissues were crushed with a glass rod in a mixture of methanol (30 μl) and EDTA/KF (60 μl, 0.1 M EDTA, 4 g/l KF), vortexed and centrifuged to remove lipids. Peptides were extracted from the pellet with 0.5% formic acid in 75% ACN/H2O (100 μl). Samples were analyzed assayed by LC/MS using a Waters Xevo TQ or TQD triple quadrupole mass spectrometer coupled to a Waters UPLC. Peptides were separated by HPLC (Supelco Ascentis Express Peptide ES C18 column, 50×2.1 mm, 2.7 μm) with 0.05% formic acid in H2O and ACN as solvents. Peptides were quantified by comparison to calibration standards (50-50,000 ng/ml).

[2] = system: NK1R; assay: NK1R endocytosis in neurons of mouse dorsal horn; format: in vivo; conditions: intrathecal
[3] = target: NK1R (Rattus norvegicus, UniProt P14600); assay: BRET of NK1R trafficking (KRas-Venus, Rab5a-Venus) in HEK293 cells; format: cell-based; design: Full length and truncated 6312 rat HA-NK1R have been described; expressed in transfected cells; host or cells: HEK293 (transient); conditions: inhibitor plus SP
NK1R (Rattus norvegicus, UniProt P14600), sequence (P14600 whole entry, the tested form may be a part): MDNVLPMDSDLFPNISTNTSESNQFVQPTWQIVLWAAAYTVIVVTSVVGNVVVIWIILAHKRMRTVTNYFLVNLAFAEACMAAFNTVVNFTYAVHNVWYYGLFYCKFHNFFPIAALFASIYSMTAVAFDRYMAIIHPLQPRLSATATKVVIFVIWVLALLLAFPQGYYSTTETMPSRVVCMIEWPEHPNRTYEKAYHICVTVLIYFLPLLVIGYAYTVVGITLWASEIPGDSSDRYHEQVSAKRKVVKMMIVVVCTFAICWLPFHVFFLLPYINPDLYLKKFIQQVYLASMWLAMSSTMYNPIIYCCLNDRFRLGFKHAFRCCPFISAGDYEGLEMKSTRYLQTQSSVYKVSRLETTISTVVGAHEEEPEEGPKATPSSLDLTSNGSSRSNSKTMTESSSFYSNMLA
Experimental: Bioluminescence Resonance Energy Transfer (BRET) was employed to quantitatively assess the proximity of the NK1R to key regulators of GPCR trafficking (βarrs), and resident proteins of plasma (KRas) and early endosomal (Rab5a) membranes in HEK293 cells (FIG. 1A).
HEK293 cells were transfected with the following cDNAs: 1 μg NK1R-RLuc8 or 1 μg CLR-RLuc8+1 μg Myc-RAMP1+4 μg KRas-Venus, 4 μg Rab5a-Venus, 4 μg βarr1-YFP, or 4 μg βarr2-YFP; or 1 μg NK1R+0.5 μg Gαq-RLuc8+1 μg Gβ1+4 μg Gγ2-Venus; or 1 μg NK1R+0.5 μg Gαq-RLuc8+1 μg Gβ1+1 μg Gγ2+4 μg Rab5a-Venus. After 48 h, cells were equilibrated in Hank's balanced salt solution (HBSS) at 37° C., and incubated with the RLuc substrate coelenterazine h (5 μM, 15 min).

[4] = system: NK1R; assay: NK1R endocytosis in rat spinal neurons in vivo; conditions: lamina I neurons; i.t. 50 μM 30 min before intraplantar capsaicin; 10 min after capsaicin
Experimental: The spinal cord was collected 10 min later for localization of the NK1R. In controls (intrathecal, intraplantar vehicle), NK1R-IR was mostly at the plasma membrane of the soma and neurites of lamina I neurons (80.7±1.6% of total NK1R-IR within […] of the soma plasma membrane).
After 10 min, rats were transcardially perfused with PBS and then 4% PFA. The spinal cord was removed, immersion fixed in PFA (2 h, 4° C.), and cryoprotected (30% sucrose, PBS, 24 h, 4° C.). The spinal cord (T12 to L4) was embedded in OCT and […] serial coronal sections were cut into 48-well plates containing PBS. Free-floating sections were blocked in PBS containing 10% normal horse serum (1 h, RT). Sections were incubated with mouse anti-NeuN (1:20,000; AbCam) and either rabbit anti-NK1R (1:5,000, #94168) or rabbit anti-pERK (1:200; Cell Signaling Technology) in PBS containing 3% normal horse serum (48 h, 4° C.). Sections were washed (4×20 min in PBS) and incubated with donkey anti-rabbit Alexa488 (1:8,000) and donkey anti-mouse Alexa568 (1:2,000 (Life Technologies) (1 h, RT). Sections were washed, incubated with DAPI (10 μg/ml, 5 min), and mounted in Vectashield (Vector Laboratories).
Tissues and cells were observed using a Leica SP8 confocal microscope using HCX PL APO 40× (NA 1.30) and HCX PL APO 63× (NA 1.40) oil objectives. Z stacks were collected of NKiR-positive neurons in lamina I of the dorsal horn. Video projections of Z stacks were made using Imaris Software (Bitplane). NK1R endocytosis and pERK expression were quantified using ImageJ. To quantify NK1R internalization in lamina I neurons, the border of the cytoplasm of the neuronal soma was defined by NeuN fluorescence, and NK1R fluorescence within 5 pixels (0.5 μm) of the border was defined as plasma membrane-associated receptor. The ratio of plasma membrane to cytosolic NK1R-IR fluorescence was determined in >6 lamina I neurons per condition. To quantify ERK activation, the ratio of the number of pERK-IR neurons to total Neu-N-positive neurons in lamina I was determined in >6 fields (×40 objective) per condition.

[5] = system: SP-IR and CGRP-IR release; assay: Neuropeptide release from mouse dorsal spinal cord; conditions: 30 μM; capsaicin 0.3 μM, 10 min
Experimental: Slices (0.4 mm) of mouse dorsal spinal cord (combined cervical, thoracic, lumbar-sacral segments) were superfused (0.4 ml·min^−1) with Krebs' solution (mM: NaCl 119, NaHCO3 25, KH2PO4 1.2, MgSO4 1.5, CaCl2 2.5, KCl 4.7, D-glucose 11 mM; […], 37° C.) containing 0.1% BSA, 1 μM phosphoramidon and 1 μM captopril. […] Tissues were then superfused with capsaicin (0.3 μM, 10 min) in the presence of inhibitors or controls. Superfusate (10 min collections, 4 ml) was collected before, during and after capsaicin stimulation, and analyzed for SP-IR and CGRP-IR (Bertin Pharma). […] Detection limits of the assays were 2 pg·ml^−1 for SP-IR and 5 pg·ml^−1 for CGRP-IR. Results are expressed as fmol·g^−1·20 min^−1.

Compound | stability after intrathecal injection to mice [1] | effect on capsaicin-, formalin- and CFA-evoked NK1R endocytosis in mouse dorsal horn neurons [2] | effect on SP-induced NK1R endocytosis (BRET KRas-Venus decrease, Rab5a-Venus increase) [3] | NK1R-IR at plasma membrane (% membrane) [4] [%] | effect on basal or capsaicin-stimulated release of SP-IR and CGRP-IR [5]
CC(=O)N[C@@H](CC(=O)O[C@H]1CC[C@@]2(C)[C@@H](CC[C@@H]3[C@@H]2CC[C@]2(C)[C@@H]([C@H](C)CCCC(C)C)CC[C@@H]32)C1)C(=O)NCCOCCOCCOCCOCCC(=O)NCCOCCOCCOCCC(=O)NCCOCCOCCOCCOCCC(=O)N[C@H](CCCNC(=N)N)C(=O)N1CCC[C@H]1C(=O)N[C@@H](CCCCN)C(=O)N1CCC[C@H]1C(=O)N[C@@H](CCC(N)=O)C(=O)N[C@@H](CCC(N)=O)C(=O)N[C@H](Cc1c[nH]c2ccccc12)C(=O)N[C@@H](Cc1ccccc1)C(=O)N[C@H](Cc1c[nH]c2ccccc12)C(=O)N[C@@H](CC(C)C)C(=O)N[C@@H](CC(C)C)C(N)=O [Compound 1] (Ac-D(X1)[PEG4][PEG3][PEG4][dR]PKPQQ[dW]F[dW]LL-NH2) | stable |  |  |  | 
O=C(N/N=C/c1cc(O)c(O)cc1O)c1cc2ccccc2cc1O [Dy4] |  | inhibited | blocked | 59.6±0.2 | did not affect
O=C1NC(=NS(=O)(=O)c2cccc3ccccc23)S/C1=C\c1ccc(Br)cc1 [PS2] |  |  | blocked | 69.0±1.1 | did not affect
